Data reported in patent US20050106258A1, “Pharmacology and manufacturing method of Bombyx moriL related bioproduct” (priority 2003, published 2005).
Counter-ions that a name gives are not always drawn.

What was measured:
normal males [1] = assay: Blood pressure of normal males; assay type: in vivo; details: for Systolic Pressure, change 1 h after administration, X ± SD: P < 0.01
Description: (§1) Subjects: 46 normal males, age 23-29, provided.
(§2) Methods: Double-blind, auto-control and mutual control design. The influence of the two medicines on arterial blood flow rate of cavernosum was contrasted, Based on ages, the objects were randonmly divided into 4 groups, and there were 11-12 people in one group. Before administration, arterial blood flow of corpus cavernosum penis was estimated respectively by Doppler color ultrasound instrument (Acuson, American, 128×p/10 c),and blood pressure was also measured. Then 2 groups were respectively given high dosage Medicine, that is, 8 capsules product mainly consisting of bombyx moriL and 8 capsules of viagra, and the dose-effect relationship was observed. Blood pressure and cavernous arterial blood flow of every group were estimated respectively at I and 2 hours after administration, and the time-effect relationship of product mainly consisting of bombyx moriL and viagra was observed. Whether the alternation before and after administration and the difference between groups were significant was convinced here.

cGMP [2] = assay: cGMP content in rat cavernous body (125I-cGMP RIA); assay type: in vivo, rats; details: 1.5 hours after administration
Experimental: (§3) According to the aim of the experiment, IRA was performed to estimate cGMP content in plasma and cavernous boby of 50 male rats which were administrated by 2 dosages of […] product mainly consisting of bombyx moriL in our ladoratory. Change caused by […] product mainly consisting of bombyx moriL at 1.5 hours after administration was wholly observed. I. Rats: 50 healthy rats were randomly divided into 5 groups, every group is 10 rats 1. Product Mainly Consisting of Bombyx moriL Group: there were two dosage group 200 mg/kg, 400 mg/kg. 2. Viagra Group: two group, 6 mg/kg, 12 mg/kg. 3. Control Group: NS, 0.4 ML/rat. Medicine Dispensing: Viagra and Product Mainly Consisting of Bombyx moriL was dissolved by certain mount of NS. Administration Method: All Group was e.g. for One Time. […] Our laboratory used 125I-cGMP-RIA kit by Isotope Laboratory, detecting Method was double antiboby radioimmune method. The experiment sensitivity is 0.008 pmol/ml, most combination rate of detection is 82.7%,non […] combination rate is 5.0%.

normal males [3] = assay: Arterial blood flow rate of corpus cavernosum penis of normal males (Doppler color ultrasound); assay type: in vivo; details: for MAX blood flow rate, change 1 h after administration, X ± SD: P < 0.001; for increasement of MAX (cavernous arterial maximal blood flow rate): 1 hour after administration vs before
Description: AIM: The physiological mechanism of penile erection expresses that NO is excreted in the cavernosum during sexual extraction, whose direct function is to activate GC, which catalyzes GPT to cGMP, so the smooth muscle of cavernosum is relax, and the inflowed blood volume is increased, then penis is erected. In this experiment, Doppler color-ultrasound instrument was used to observe the influence of product mainly consisting of bombyx moriL and viagra on the arterial blood flow rate of corpus cavernosum penis of normal males, to estimate the alternation of inflowed blood volume of cavernosum.
Tested Medicie: No.981005, light-blue capsule, 200 mg/capsule.
Sildenafilcitrate, viagra: light-blue rhombic table, 100 mg/tablet. The tablet was triturated to fine powder, and amylum was added. After adequate mixture, the powder was filled into 200 mg capsule. (The same specification as product mainly consisting of bombyx moriL).There was 50 mg sildenafilcitrate in every 8 capsules.
as §1, §2

nitric oxide (NO) = assay: Nitric oxide contents in the corpora cavernosa of penis in male rats (nitrate reductase method); assay type: in vivo
Description: It has been approved in literatures that nitric oxide (NO) is formed in the endothelial cells in blood vessels and NO plays as an important signal transmitter in many physical activities of the human body. Nitric Oxide exists in many organs and tissues such as brain, blood vessels, liver, lung, pancreas, immune and reproductive systems. On the basis of No on wide-ranging regulative activities in the human physiological process, the Nitric Oxide contents, in the Sera and the Corpora Cavernosa of Penis in 50 normal male rats, were measured by nitrate reductase method for two dosages of product mainly consisting of bombyx moriL and Sildenafil Citrate(Viagra).On a half and one hour after the drug administrations, the variations of NO content were compared with the two drugs treated animals as a whole situation. The results are: (1) In the rat serum of the tested drug groups, there are distinct NO content differences with statistical […] compared the No contents of the low dosage groups of the two drugs with the control group's, and there are very distinct NO content differences with statistical significance (p<0.001) in the high dosage groups of the two drugs. […]

cGMP [4] = assay: cGMP content in rat plasma (125I-cGMP RIA); assay type: in vivo, rats; details: 1.5 hours after administration, P < 0.001 vs control (2.59 ± 0.48)
Experimental: as §3, with “Time. Anticoagulant 50 u l EDTA was added into blood test tube.lml blood was taken in rat's veniplex orbita posterior. Test tubes was stood in ice-water mixture and were centrifugated 200 rpm for 10 minutes.” for “Time.”

[5] = system: 5′ Nucleotide Phosphodiesterase isoenzyme (isoenzyme V) in corpus cavernosum tissue; assay: 5′ Nucleotide Phosphodiesterase isoenzyme bands in rat corpus cavernosum tissue after oral dosing (polyacrylamide gel electrophoresis, laser scanning); assay type: in vivo, rats; details: P < 0.05 vs blank comparison (0.495 ± 0.328)
Experimental: Take 50 healthy male rats with body weight of 230±10.4 g, divide them into five groups at random, with 10 rats each group.
(1) The product mainly consisting of bombyx moriL test drug group: 200mg/kg and 400mg/kg two dose groups
(2) The positive comparison drug viagra group: 6 mg/kg and 12 mg/kg two dose groups
(3) The blank comparison group: normal saline 0.4 ml/per animal
Preparation of drug: After product mainly consisting of bombyx moriL and viagra are dissolved with quanitative normal saline, then use them.
Drug feeding way: Feed medicine to all groups of animal once.
Take corpus cavernosum 10 mg, put into the tissue lapping homogenate container, add 0.05M PH7.4 phosphoric acid buffering agent liquid of 0.2 ml homogenate into the ice bath, and lastly add to 10 ml to prepare homogenate liquid with concentration of 1 mg/n ml. Centrifuge by 20 min. at temperature 4° C., 3000 r/min, then take the supernatant liquid for use.
(1) Take 5′ Nucleotide Phosphodiesterase in the amount enough to dissolve phosphoric acid dieter bond by water, under the effecting of the bottom substance of 5′-[5-iodine indoxyl-(3)] thymidine acid ammonium salt, get iodine sub-indoxyl, it can be oxidized in air and generating violet 5.5′,by using -diuodoindigo principle to examine enzyme activity. […]

[6] = Viagra 25 mg, n=11, before administration 81.8 ± 6.4
[7] = Viagra 25 mg, n=11, before administration 120.5 ± 10.6
[8] = Viagra 50 mg, n=12, before administration 78.6 ± 10.7
[9] = Viagra 50 mg, n=12, before administration 117.7 ± 9.8
[10] = Viagra 25 mg, n=11, before administration 1.09 ± 0.30
[11] = Viagra 25 mg, n=11, before administration 3.24 ± 1.02
[12] = Viagra 50 mg, n=12, before administration 1.25 ± 0.62
[13] = Viagra 50 mg, n=12, before administration 3.37 ± 0.79

Question: Which results are given for `CCCc1nn(C)c2c(=O)[nH]c(-c3cc(S(=O)(=O)N4CCN(C)CC4)ccc3OCC)nc12` [Viagra, Sildenafil citrate]?
Answer: rate of hypotensive function (normal males [1]; "High dosage" as printed, remarkable only at 1 hour after administration): 8.3%; Diastolic Pressure, change 1 h after administration, X ± SD (normal males [1]; [6]): −2.7 ± 4.7 mmHg; Diastolic Pressure, change 2 h after administration, X ± SD (normal males [1]; [6]): −1.8 ± 4.6 mmHg; Systolic Pressure, change 2 h after administration, X ± SD (normal males [1]; [7]): −3.5 ± 6.2 mmHg; Systolic Pressure, change 1 h after administration, X ± SD (normal males [1]; [7]): −10.0 ± 6.3 mmHg; Diastolic Pressure, change 1 h after administration, X ± SD (normal males [1]; [8]): −3.4 ± 7.2 mmHg; Diastolic Pressure, change 2 h after administration, X ± SD (normal males [1]; [8]): −2.0 ± 6.4 mmHg; Systolic Pressure, change 2 h after administration, X ± SD (normal males [1]; [9]): −2.7 ± 5.6 mmHg; Systolic Pressure, change 1 h after administration, X ± SD (normal males [1]; [9]): −7.3 ± 6.1 mmHg; decreasing rate of systolic pressure (sp) (normal males [1]; high dosage, 1 h after administration, p<0.01): 6.2%; cGMP content in cavernous body, X ± SD (cGMP [2]; Viagra 6 mg/kg, P < 0.1 vs control (0.25 ± 0.05)): 0.40 ± 0.26 pmol/mL; cGMP content in cavernous body, X ± SD (cGMP [2]; Viagra 12 mg/kg, P < 0.001 vs control (0.25 ± 0.05)): 0.53 ± 0.12 pmol/mL; MIN blood flow rate, change 1 h after administration, X ± SD (normal males [3]; [10]): +0.27 ± 1.01 cm/s; MIN blood flow rate, change 2 h after administration, X ± SD (normal males [3]; [10]): +0.36 ± 0.81 cm/s; TAMX blood flow rate, change 2 h after administration, X ± SD (normal males [3]; Viagra 25 mg, n=11, before administration 2.64 ± 1.12): 0.18 ± 1.17 cm/s; TAMX blood flow rate, change 1 h after administration, X ± SD (normal males [3]; Viagra 25 mg, n=11, before administration 2.64 ± 1.12, P < 0.05): +1.36 ± 1.43 cm/s; PI (pulsation index), change 1 h after administration, X ± SD (normal males [3]; [11]): −0.19 ± 1.16; PI (pulsation index), change 2 h after administration, X ± SD (normal males [3]; [11]): +0.10 ± 0.85; MAX blood flow rate, change 1 h after administration, X ± SD (normal males [3]; Viagra 25 mg, n=11, before administration 9.55 ± 2.58): +4.36 ± 2.98 cm/s; MIN blood flow rate, change 1 h after administration, X ± SD (normal males [3]; [12]): +0.17 ± 0.72 cm/s; MIN blood flow rate, change 2 h after administration, X ± SD (normal males [3]; [12]): +0.17 ± 0.91 cm/s; TAMX blood flow rate, change 2 h after administration, X ± SD (normal males [3]; Viagra 50 mg, n=12, before administration 2.67 ± 0.78): 0.50 ± 0.80 cm/s; TAMX blood flow rate, change 1 h after administration, X ± SD (normal males [3]; Viagra 50 mg, n=12, before administration 2.67 ± 0.78, P < 0.01): +1.43 ± 1.27 cm/s; PI (pulsation index), change 1 h after administration, X ± SD (normal males [3]; [13]): +0.24 ± 0.84; PI (pulsation index), change 2 h after administration, X ± SD (normal males [3]; [13]): −0.33 ± 0.72; MAX blood flow rate, change 1 h after administration, X ± SD (normal males [3]; Viagra 50 mg, n=12, before administration 9.58 ± 1.08): +5.67 ± 4.31 cm/s; MAX blood flow rate, change 2 h after administration, X ± SD (normal males [3]; Viagra 50 mg, n=12, before administration 9.58 ± 1.08, P < 0.05): +1.75 ± 2.63 cm/s; increasement of MAX (cavernous arterial maximal blood flow rate) (normal males [3]; high dosage groups): 59.2%; increasing rate of TAMX (cavernous average blood flow rate) (normal males [3]; low and high dosage groups, 1 hour after administration, P<0.01): 51.5-53.6%; increasement of MAX (cavernous arterial maximal blood flow rate) (normal males [3]; low dosage groups): 46.6%; NO contents X ± SD, corpora cavernosa (nitric oxide (NO); Viagra high 12 mg/kg, P < 0.05 vs negative control (29.2 ± 5.37)): 48.52 ± 17.95 µmol/L; NO contents X ± SD, corpora cavernosa (nitric oxide (NO); Viagra low 6 mg/kg, P < 0.01 vs negative control (29.2 ± 5.37)): 44.88 ± 9.47 µmol/L; cGMP content in plasma, X ± SD (cGMP [4]; Viagra 6 mg/kg): 4.53 ± 0.67 pmol/mL; cGMP content in plasma, X ± SD (cGMP [4]; Viagra 12 mg/kg): 4.42 ± 0.97 pmol/mL; isoenzyme band II area under peak, Peak Area X ± SD ([5]; Viagra 6 mg/kg): 0.249 ± 0.126; isoenzyme band II area under peak, Peak Area X ± SD ([5]; Viagra 12 mg/kg): 0.198 ± 0.092
